Experimental data published in patent publication US8404848B2, “Derivatives of imidazo[1,2-a]pyridine-2-carboxamides, preparation method thereof and use of same in therapeutics” (Sanofi, priority 2006, dated 2013).

Key:
[1] = target: T1, mouse Nurr1 receptor (Mus musculus, UniProt Q06219); assay: In vitro activity on N2A cells (NBRE-luciferase reporter); assay type: cell-based; conditions: N2A cell line endogenously expressing mouse Nurr1, stably transfected with 8NBRE-luciferase; 24 hours incubation
T1 construct: On a cell line (N2A) endogenously expressing the mouse Nurr1 receptor; host or cells: Neuro-2A (N2A) mouse neuroblastoma cells stably transfected with 8NBRE-luciferase
T1 sequence (Q06219 whole entry): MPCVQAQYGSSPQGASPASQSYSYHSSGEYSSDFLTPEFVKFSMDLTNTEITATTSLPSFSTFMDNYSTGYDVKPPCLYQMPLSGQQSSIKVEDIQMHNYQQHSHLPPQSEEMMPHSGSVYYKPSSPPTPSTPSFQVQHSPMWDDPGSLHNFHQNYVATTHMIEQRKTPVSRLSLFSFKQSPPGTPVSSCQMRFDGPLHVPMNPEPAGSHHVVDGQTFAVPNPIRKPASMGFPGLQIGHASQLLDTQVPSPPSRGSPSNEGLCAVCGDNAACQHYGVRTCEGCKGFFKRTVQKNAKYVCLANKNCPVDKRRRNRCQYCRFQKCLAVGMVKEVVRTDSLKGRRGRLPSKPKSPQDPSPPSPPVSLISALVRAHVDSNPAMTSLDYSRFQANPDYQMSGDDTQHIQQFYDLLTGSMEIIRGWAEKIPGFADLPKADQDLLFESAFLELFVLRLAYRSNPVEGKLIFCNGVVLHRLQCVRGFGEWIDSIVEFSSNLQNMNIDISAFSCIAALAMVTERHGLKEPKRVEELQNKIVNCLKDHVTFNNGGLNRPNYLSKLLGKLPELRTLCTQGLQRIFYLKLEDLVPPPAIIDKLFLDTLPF
Protocol: Evaluation of the In Vitro Activity on N2A Cells
On a cell line (N2A) endogenously expressing the mouse Nurr1 receptor and stably transfected with the NOT binding response element (NBRE) coupled to the luciferase reporter gene. The EC50 values are between 0.01 and 1000 nM. The assays were carried out according to the procedure described below.
The Neuro-2A cell line comes from a standard commercial source (ATCC). The Neuro-2A clone was obtained, from a spontaneous tumor originating from an A albino mouse strain, by R. J Klebe et al. This Neuro-2A line is subsequently stably transfected with 8NBRE-luciferase. The N2A-8NBRE cells are cultured until confluence in 75 cm^2 culture flasks containing DMEM supplemented with 10% of fetal calf serum, 4.5 g/l of glucose and 0.4 mg/ml of geneticin. After a week of culture, the cells are recovered with 0.25% trypsin for 30 seconds and then resuspended in DMEM without phenol red, containing 4.5 g/l of glucose and 10% of Hyclone delipidized serum, and deposited into transparent-bottom 96-well white plates. The cells are deposited at a rate of 60 000 per well in 75 μl for 24 hours before the addition of the products. The products are applied in 25 μl and incubated for a further 24 hours. On the day of the measurement, an equivalent volume (100 μl) of Steadylite is added to each well and then left for a period of 30 minutes in order to obtain complete cell lysis and maximum signal production. The plates are subsequently measured in a luminescence counter for microplates after having been sealed with an adhesive film. The products are prepared in the form of a stock solution at 10^−2M and then diluted in 100% of DMSO. Each product concentration is prediluted in culture medium before incubation with the cells, thus containing 0.625% final concentration of DMSO.

[2] = system: human NOT receptor; assay: Binding to the human NOT receptor by SPR (surface plasmon resonance); conditions: Biacore S51, immobilized GST-NOT whole protein and NOT ligand-binding domain, 3.75 to 0.1 μM, 4° C.
Protocol: Evaluation of the Binding to the Human NOT Receptor
The direct binding between compounds of the invention and the human NOT receptor was evaluated using SPR (surface plasmon resonance) technology. In this assay, the protein is immobilized covalently at the matrix and the molecule to be studied is injected into the chamber comprising the sensor chip. The signal is directly proportional to the amount of product bound to the protein. The binding assays were carried out in a Biacore S51 instrument (Biacore Inc., Piscataway, N.J.). The GST-NOT (NOT-FL) whole protein was provided by Invitrogen (PV3265). The NOT ligand-binding domain (His-Thr-NOT 329-598) was expressed and purified as described in Nature, 423, 555-560. The two proteins, diluted to a concentration of 20 μg/ml in an acetate buffer, pH 5.0, containing 5 mM of DTT, were immobilized on a carboxymethyl 5′ dextran surface (CM5 sensor chip, Biacore Inc.) by amine coupling according to the protocol recommended by Biacore, elution being carried out with an HBS-N buffer (10 mM HEPES, 0.15 M NaCl, […], pH 7.4). Approximately 10 000-15 000 resonance units (RU) of the proteins are captured on the surface of the CM5 sensor chip. […] The dissociation was recorded for 5 minutes without any other procedure for regenerating the surface. […]

Row | Structure (SMILES) | EC50 [1] [nM] | affinity (direct binding, classified by maximum binding level and kinetic parameters) [2]
1 | CC(C)(O)c1ccc2nc(C(=O)Nc3ccccc3)cn2c1 [Compound 4, 6-(1-Hydroxy-1-methylethyl)-N-phenylimidazo[1,2-a]pyridine-2-carboxamide] | 0.66 | 
2 | Cc1ccc2nc(C(=O)Nc3ccccc3)cn2c1 [Compound 19, 6-Methyl-N-phenylimidazo[1,2-a]pyridine-2-carboxamide] | 0.6 | low
3 | C=C(C)c1ccc2nc(C(=O)Nc3ccccc3)cn2c1 [Compound 32, 6-Isopropenyl-N-phenylimidazo[1,2-a]pyridine-2-carboxamide] | 0.06 | 
4 | O=C(Nc1ccccc1)c1cn2cc(N3CCC3)ccc2n1 [Compound 70, 6-(Azetidin-1-yl)-N-phenylimidazo[1,2-a]pyridine-2-carboxamide] | 0.16 | 
5 | O=C(Nc1ccccc1)c1cn2cc(-c3ccccc3)ccc2n1 [Compound 7, N,6-Diphenylimidazo[1,2-a]pyridine-2-carboxamide] | 0.9 | moderate
6 | O=C(Nc1ccccc1F)c1cn2cc(-c3cccc(CO)c3)ccc2n1 [Compound 67, N-(2-Fluorophenyl)-6-[3-(hydroxymethyl)phenyl]imidazo[1,2-a]pyridine-2-carboxamide] | 0.7 | 
7 | COc1ccc2nc(C(=O)Nc3ccccc3)cn2c1 [Compound 29, 6-Methoxy-N-phenylimidazo[1,2-a]pyridine-2-carboxamide] | 1.3 | 
8 | Cc1ccc2nc(C(=O)Nc3ccccc3)cn2c1C [Compound 43, 5,6-Dimethyl-N-phenylimidazo[1,2-a]pyridine-2-carboxamide] | 0.3 | 
9 | CN(C)c1ccc2nc(C(=O)Nc3cc(F)ccc3F)cn2c1 [Compound 58, N-(2,5-Difluorophenyl)-6-(dimethylamino)imidazo[1,2-a]pyridine-2-carboxamide] | 1.3 | 
